Assay results taken from PubChem BioAssay (NCI).
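Five compound concentrations were applied to cells in 96-well plates for 48 hours; endpoints were derived by simple linear interpolation of the resulting dose-response curve. GI50 is the concentration that inhibits growth by half. TGI: total growth inhibition.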

Legend:
Test in all cases: growth of human tumour cells (NCI), 48 h; in the data active = GI50 below about 0.43 µM; inactive = the rest
SN12C renal = system: SN12C renal
MOLT-4 leukemia = system: MOLT-4 leukemia
NCI-H460 lung = system: NCI-H460 lung
SK-MEL-5 melanoma = system: SK-MEL-5 melanoma
SNB-75 CNS = system: SNB-75 CNS
SR leukemia = system: SR leukemia
MDA-MB-435 = system: MDA-MB-435
ACHN renal = system: ACHN renal
SF-539 CNS = system: SF-539 CNS
CAKI-1 renal = system: CAKI-1 renal
IGROV1 ovarian = system: IGROV1 ovarian
NCI/ADR-RES ovarian = system: NCI/ADR-RES ovarian
SW-620 colon = system: SW-620 colon
HS 578T breast = system: HS 578T breast
HOP-62 NSCLC = system: HOP-62 NSCLC
HT29 colon = system: HT29 colon
HCT-116 colon = system: HCT-116 colon
SK-OV-3 ovarian = system: SK-OV-3 ovarian
MCF7 breast = system: MCF7 breast
HL-60(TB) leukemia = system: HL-60(TB) leukemia
COLO 205 colon = system: COLO 205 colon
OVCAR-5 ovarian = system: OVCAR-5 ovarian
RXF 393 renal = system: RXF 393 renal
K-562 leukemia = system: K-562 leukemia
DU-145 prostate = system: DU-145 prostate
HCT-15 colon = system: HCT-15 colon
SF-268 CNS = system: SF-268 CNS
786-0 renal = system: 786-0 renal
NCI-H23 lung = system: NCI-H23 lung
U251 CNS = system: U251 CNS
OVCAR-8 ovarian = system: OVCAR-8 ovarian
SF-295 CNS = system: SF-295 CNS
HOP-92 NSCLC = system: HOP-92 NSCLC
UACC-62 melanoma = system: UACC-62 melanoma
UACC-257 melanoma = system: UACC-257 melanoma
TK-10 renal = system: TK-10 renal
CCRF-CEM leukemia = system: CCRF-CEM leukemia
A498 renal = system: A498 renal
NCI-H226 lung = system: NCI-H226 lung
OVCAR-3 ovarian = system: OVCAR-3 ovarian
UO-31 renal = system: UO-31 renal
HCC-2998 colon = system: HCC-2998 colon
RPMI-8226 leukemia = system: RPMI-8226 leukemia
EKVX NSCLC = system: EKVX NSCLC
M14 melanoma = system: M14 melanoma

c1csc(-c2ccc(-c3ccc(-c4ccc(-c5cccs5)s4)s3)s2)c1
53.6 µM: TGI (HL-60(TB) leukemia)
53.8 µM: TGI (CCRF-CEM leukemia)
> 100 µM: TGI (SN12C renal) | TGI (MOLT-4 leukemia) | TGI (NCI-H460 lung) | TGI (SK-MEL-5 melanoma) | TGI (SNB-75 CNS) | TGI (SR leukemia) | TGI (MDA-MB-435) | TGI (ACHN renal) | TGI (SF-539 CNS) | TGI (CAKI-1 renal) | TGI (IGROV1 ovarian) | TGI (NCI/ADR-RES ovarian) | TGI (SW-620 colon) | TGI (HS 578T breast) | TGI (HOP-62 NSCLC) | TGI (HT29 colon) | TGI (HCT-116 colon) | TGI (SK-OV-3 ovarian) | TGI (MCF7 breast) | TGI (COLO 205 colon) | TGI (OVCAR-5 ovarian) | TGI (RXF 393 renal) | TGI (K-562 leukemia) | TGI (DU-145 prostate) | TGI (HCT-15 colon) | TGI (SF-268 CNS) | TGI (786-0 renal) | TGI (NCI-H23 lung) | TGI (U251 CNS) | TGI (OVCAR-8 ovarian) | TGI (SF-295 CNS) | TGI (HOP-92 NSCLC) | TGI (UACC-62 melanoma) | TGI (UACC-257 melanoma) | TGI (TK-10 renal) | TGI (A498 renal) | TGI (NCI-H226 lung) | TGI (OVCAR-3 ovarian) | TGI (UO-31 renal) | TGI (HCC-2998 colon) | TGI (RPMI-8226 leukemia) | TGI (EKVX NSCLC) | TGI (M14 melanoma)

CNCc1cccc2c1OCCOCCN(C)C(=O)CN(C)S(=O)(=O)c1ccc(cc1)-c1cnc(N)c(n1)C(=O)N2
inactive: GI50 (SK-MEL-5 melanoma) 6.63 µM | GI50 (CAKI-1 renal) 2.35 µM | GI50 (NCI/ADR-RES ovarian) > 100 µM | GI50 (HT29 colon) 2.85 µM | GI50 (HCT-15 colon) 6.97 µM | GI50 (786-0 renal) 0.669 µM | GI50 (SF-295 CNS) 1.77 µM | GI50 (TK-10 renal) 2.71 µM | GI50 (A498 renal) 1.82 µM | GI50 (UO-31 renal) > 100 µM
3.47 µM: TGI (NCI-H23 lung)
2.09 µM: TGI (786-0 renal)
> 100 µM: TGI (SK-MEL-5 melanoma) | TGI (CAKI-1 renal) | TGI (NCI/ADR-RES ovarian) | TGI (HT29 colon) | TGI (MCF7 breast) | TGI (HCT-15 colon) | TGI (SF-295 CNS) | TGI (TK-10 renal) | TGI (UO-31 renal)
active: GI50 (MCF7 breast) 0.0853 µM | GI50 (NCI-H23 lung) 0.299 µM
7.34 µM: TGI (A498 renal)

c1ccc(C2=NOC3(c4ccccc4)CC(c4cccs4)Sc4ccccc4N23)cc1 (stereo unspecified)
inactive: GI50 (MOLT-4 leukemia) 8.75 µM | GI50 (HT29 colon) 65.5 µM | GI50 (HCT-116 colon) 28.2 µM | GI50 (OVCAR-5 ovarian) 35.1 µM | GI50 (K-562 leukemia) 23.6 µM | GI50 (U251 CNS) 7.58 µM | GI50 (UO-31 renal) 89.1 µM
